According to US8334105B2, “Methods for treating cardiac disease by modifying an N-terminal domain of troponin I” (Northshore University Healthsystem, priority 2004, dated 2012):

Legend:
[1] = tested on: actomyosin ATPase of mouse cardiac myofibrils; experiment: Actomyosin MgATPase assay of isolated cardiac myofibrils (Ca2+ sensitivity); assay type: biochemical
Experimental: Mice were anesthetized with sodium pentobarbital (50 mg/kg body weight, i.p.). Hearts removed from transgenic or control mice were perfused in a retrograde manner, either with normal saline or with saline containing 20 nM isoproterenol. Cardiac myofibrils were prepared according to the method described by Solaro et al. (23, incorporated herein by reference) with modifications. These include the use of NaF (50 mM), EGTA (2.5 mM), and KH2PO4 as phosphatase inhibitors and phenylmethylsulphonyl fluoride (0.2 mM) as a protease inhibitor (24). The ventricular muscle was pulverized in a food blender for 10 seconds in 50 ml buffer containing 0.5% (v/v) Triton X-100®, 60 mM KCl, 30 mM imidazole, pH 7.0, 2 mM MgCl2, and 1 mM DTT, incubated for 5 min and centrifuged at 2,500×g for 2 min. Pellets were washed three times in buffer containing 60 mM KCl, 30 mM imidazole, pH 7.0, 2 mM MgCl2, and 1 mM DTT.
Actomyosin MgATPase assays were performed to titrate the Ca^2+ sensitivity of the transgenic and wild-type mouse cardiac myofibrils under constant ionic strength, using the stability constants compiled by Fabiato (25), and were performed at pH 7.0 with 50 mM imidazole, 50 mM KCl, and 2 mM MgATP at 37° C. Inorganic phosphate release was measured as the amount of heteropolymolybdenum (26) using an automated microtiter plate reader (Bio-Rad Benchmark) for optical density at 660 nm, as described previously (27, incorporated herein by reference).

[2] = tested on: isolated working mouse hearts; experiment: Langendorff-Neely isolated working heart preparation
Experimental: Cardiac function of wild-type and transgenic mice were measured at 5-6 months of age using the Langendorff-Neely isolated working heart preparation, at a constant preload of 10 mmHg and an afterload of 55 mmHg, as previously described (29-31, incorporated herein by reference). Mice were anesthetized as above and the thoracic cavity was opened by a transverse incision to access the heart. Retrograde perfusion through the aorta was initiated within 60 seconds after removal of the heart. After establishing left atrial perfusion, the heart was switched to working mode. The hearts were perfused with Krebs-Henseleit bicarbonate buffer aerated with 95% O2-5% CO2 at 37° C. (pH=7.4). The buffer contents were as follows (in mM): 118 NaCl, 4.7 KCl, 2.25 CaCl2, MgSO4, 1.2 KH2PO4, 0.32 EGTA, 25 NaHCO3, and 11 D-glucose (29). Functions of the isolated working hearts were measured on intrinsic beats at 37° C. with no artificial pacing applied.
Aortic flow and coronary effluent were collected once every two minutes over a 30-minute period. Heart rate and the maximum rate of pressure development (dP/dt) were measured using an MLT844 pressure transducer (Capto, Horten, Norway) attached to the aortic cannula. […]
Stroke volume (μL/g heart tissue) was calculated as the sum of aortic flow and coronary effluent, normalized to heart rate. Stroke work (mL-mmHg/g heart tissue) was calculated as stroke volume X average aortic pressure (diastolic pressure+one-third of pulse pressure) (mmHg). During the collection of aortic flow, time to peak pressure (TTP) and the relaxation times (RT) at 10, 50 and 80% total relaxation (RT10, RT50 and RT80, respectively) were measured from the pressure traces. Systolic and diastolic pressure time integrals (STI, correlating with myocardial energy expenditure (31-34), and DTI, correlating with diastolic function and coronary perfusion (35-42), respectively) were calculated by integrating the systolic and diastolic portions of the pressure waves. […]

transgenic mouse hearts = experiment: Observation of transgenic mice and hearts for hypertrophy and abnormality; assay type: in vivo
Text: Transgenic mice over-expressing various levels of cTnI-ND in the heart are apparently normal in life activities.

maximum actomyosin ATPase rate with isoproterenol treatment, WT myofibrils ([1]; WT cardiac myofibrils, with isoproterenol treatment) [nmole Pi/mg protein/min]	pCa50 ([1]; myofibrils from isoproterenol perfused WT hearts)	maximum Ca^2+-activated actomyosin ATPase rate ([1]; cTnI-ND cardiac myofibrils, base line) [nmole Pi/mg protein/min]	Molecule	−dP/dt produced by isoproterenol treatment in WT hearts ([2]; 10 nM isoproterenol, WT hearts) [mmHg-sec^−1]	effect of isoproterenol on velocity of contraction (+dP/dt) ([2]; 10 nM isoproterenol, WT, INT-cTnI-ND and H-cTnI-ND hearts)	effect of isoproterenol on relaxation velocity ([2]; 30 nM and 50 nM isoproterenol perfusions, all three groups of hearts)	maximum actomyosin ATPase rate with isoproterenol treatment, cTnI-ND myofibrils ([1]; cTnI-ND cardiac myofibrils, with isoproterenol treatment) [nmole Pi/mg protein/min]	hypertrophy (heart weight/body weight ratio, diameter of cardiac myocytes) (transgenic mouse hearts; compared with wild type controls)	anatomical or histological abnormality of hearts (transgenic mouse hearts; transgenic mouse hearts)
418±57	5.91±0.05	–	CC(C)NCC(O)c1ccc(O)c(O)c1 (stereo not drawn) [isoproterenol]	2087±58	increased in all three groups	significant increases in relaxation velocity	–	–	–
–	–	417±48	cTnI-ND: N-terminus truncated mouse cardiac troponin I that lacks amino acids 1-28, over-expressed in transgenic mouse hearts	–	–	–	421±43	No evidence of hypertrophy	no evidence of anatomical or histological abnormality
